Source: US20140187595A1 (INSERM (Institut National de la Sante et de la Recherche …, priority 2010, published 2014)

How the values were obtained:
DM1 cells = assay: Toxicity on repeated daily treatment of DM1 cells; settings: 10 mM repeated daily for up to 10 days
[1] = test system: cTNT splicing (±exon 5), pRG6 minigene; assay: cTNT splicing (±exon 5) by RT-PCR in MPCs transfected with pRG6 minigene; type: cell-based, human; settings: 25 mM, DM1 MPCs
Excerpt: FIG. 1E cTNT splicing (±exon 5) in WT and DM1 MPCs cotransfected with the indicated expression vectors and the pSG (d) or pRG6 (e) minigenes respectively (means ±s.d., n=3).
TNNT2 (cTNT) was chosen because, opposite to INSR, abnormal splicing in DM1 leads to the inclusion of an exon (exon 5)^4. As TNNT2 is not expressed in MPCs, cells were transfected with the RG6 minigene^13 based upon the chicken orthologue.

[2] = test system: pre-mRNA splicing (Ank2, Capzb, INSR, Nfix, Alp); settings: higher dose (600 mg/Kg/day), mouse heart
WT MPCs = assay: INSR and cTNT splicing in WT cells; type: cell-based, human
DM1 myoblasts = assay: Splicing in immortalized myoblasts from DM1 patients; type: cell-based, human
Excerpt: FIGS. 4A and 4B. Effects of AMPK activators on INSR splicing defect in immortalized myoblasts or freshly isolated peripheral blood lymphocytes (PBLs) from DM1 patients.

[3] = test system: INSR splicing (±exon 11) in DM1 MPCs; assay: INSR splicing (±exon 11, INSR-A/INSR-B ratio) by quantitative PCR in DM1 MPCs; type: cell-based, human
[4] = Toxicity in mouse at end of metformin treatment; type: in vivo, C57BL/6NCr1 mouse; settings: 200 and 600 mg/Kg/day by gavage
Excerpt: Enhancement of Ank2 exon 21 and Capzb exon 8 inclusion, INSR exon 11 and Nfix exon […] exclusion or Alp exons 5a and 5b alternative splicing associated to a rescuing effect of DM1 missplicings in mouse skeletal muscle were observed.

[5] = test system: splicing defects associated with myotonic dystrophy; settings: Warf et al. 2009; cited from earlier work

SMILES	toxicity (DM1 cells)	exogenous cTNT splicing (±exon 5) [1]	exogenous cTNT splicing (±exon 5) ([1]; listed as Metformin)	INSR exon 11 exclusion in the heart [2]	"MBNL1-related" splicing of the two genes (INSR, cTNT) (WT MPCs)	INSR transcript exon 11 (DM1 myoblasts)	SERCA1 transcript exon 22 (DM1 myoblasts)	ZASP transcript exon 10 (DM1 myoblasts)	endogenous human cTNT transcript exon 5 (DM1 myoblasts)	corrective effect on INSR splicing after repeated treatment ([3]; 10 mM daily for up to 10 days)	INSR splicing (±exon 11) rescue ([3]; 24 h-treatment, increasing concentrations)	toxicity at the end of the treatment period [4]	splicing defects associated with myotonic dystrophy [5]
CN(C)C(=N)N=C(N)N [metformin]	no observed toxicity	decreased inclusion of exon 5	restores	enhancement of INSR exon 11 exclusion was also observed	efficient in facilitating	exon 11 inclusion	exon 22 inclusion	exon 10 skipping	exon 5 skipping	maintained corrective effect	partially rescues	No sign of toxicity	
N=C(N)c1ccc(OCCCCCOc2ccc(C(=N)N)cc2)cc1 [Pentamidine, pentamidine]													reverses the splicing defects
